Legend:
β-secretase (BACE) [1] = target: T1, β-secretase (BACE) (Homo sapiens, UniProt P56817); test: BACE % Inhibition Assay ((Aedens)-[…]-(Dabcyl K-amide) substrate); assay type: biochemical; settings: % error ±10%
T1 construct: purchased Panvera
Experimental: The substrate stock solution was prepared in DMSO as a 10 mg/mL solution. The substrate working solution was prepared by diluting the 10 mg/mL stock solution with substrate assay buffer to a final concentration of […]. The β-secretase (BACE) working solution was prepared by diluting a 0.83 mg/mL BACE stock solution with enzyme assay buffer to a final concentration of 4 μg/mL.
Test compounds were dissolved in DMSO to 10 mM.
The screening procedure for this assay was as follows: 15 μL of BACE working solution was pipetted into each well of a 96-well plate. To each well was then pipetted 2 μL of test compound at the selected concentration. Test compound and BACE were then mixed with a pipettor and incubated for 20 min at room temperature. To each well was then added 10 μL of the substrate working solution. The plates were then incubated for 1 hour at room temperature.
The procedure for the blank was as follows. 15 μL of assay buffer was pipetted into each well to be used as a blank control. To each well was then added 2 μL of vehicle and 10 μL of substrate working solution. The plates were then incubated for 1 hour at room temperature.
The procedure for the positive control was as follows: 15 μl of BACE working solution was pipetted into each well to be used as a positive control. To each well was then pipetted 2 μL of vehicle. Vehicle and BACE were then mixed with a pipettor and incubated for 20 min at room temperature. To each well was then added 10 μL of the substrate working solution. The plates were the incubated for 1 hour at room temperature.
For test compounds, % inhibition was determined at each concentration as follows: […]

β-secretase (BACE) [2] = target: T1, β-secretase (BACE); test: BACE FS1 % Inhibition Assay; assay type: biochemical
Summary of the method: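 Percent inhibition per compound concentration was referenced to vehicle-treated enzyme and no-enzyme wells. Enzyme at a 4 μg/mL working stock plus compound was mixed for 20 min at room temperature before the FS1 substrate (300 μg/mL working stock) was added for a 1 h room-temperature reaction.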

T1 sequence (P56817 46-501): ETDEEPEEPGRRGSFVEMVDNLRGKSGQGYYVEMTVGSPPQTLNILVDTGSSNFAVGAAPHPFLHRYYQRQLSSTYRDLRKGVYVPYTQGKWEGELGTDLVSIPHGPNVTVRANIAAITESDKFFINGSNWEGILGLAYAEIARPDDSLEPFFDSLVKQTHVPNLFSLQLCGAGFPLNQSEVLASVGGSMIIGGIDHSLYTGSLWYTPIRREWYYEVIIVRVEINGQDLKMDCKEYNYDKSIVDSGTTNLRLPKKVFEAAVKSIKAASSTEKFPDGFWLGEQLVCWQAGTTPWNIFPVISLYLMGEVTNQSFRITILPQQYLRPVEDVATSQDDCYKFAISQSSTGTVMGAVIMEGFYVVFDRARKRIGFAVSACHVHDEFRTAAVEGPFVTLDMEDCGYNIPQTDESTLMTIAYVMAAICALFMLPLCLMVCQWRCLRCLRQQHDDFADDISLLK

## CCCCC(CC)C(=O)NCC(c1ccccc1)N1Cc2cc(Oc3ccccc3)ccc2N=C1N (centres unmarked) [Compound 341]
β-secretase (BACE) [1]; 0.3 μM compound
  % Inhibition: <30%
β-secretase (BACE) [1]; 1 μM compound
  % Inhibition: <30%
β-secretase (BACE) [1]; 3 μM compound
  % Inhibition: 72%

## CCCC(CCC)C(=O)NCc1cccc(CN2Cc3cc(Oc4ccccc4)ccc3N=C2N)c1 [Compound 338]
β-secretase (BACE) [1]; 0.3 μM compound
  % Inhibition: <30%
β-secretase (BACE) [1]; 1 μM compound
  % Inhibition: <30%
β-secretase (BACE) [1]; 3 μM compound
  % Inhibition: <30%

## CCOC(=O)CCN1Cc2cc(Oc3ccccc3)ccc2N=C1N [Compound 65]
β-secretase (BACE) [1]; 3 μM compound
  % Inhibition: <30%
β-secretase (BACE) [1]; 10 μM compound
  % Inhibition: <30%

## NC1=Nc2ccc(Oc3ccccc3)cc2CN1Cc1cccc(CNC(=O)C23CC4CC(CC(C4)C2)C3)c1 [Compound 336]
β-secretase (BACE) [1]; 0.3 μM compound
  % Inhibition: <30%
β-secretase (BACE) [1]; 1 μM compound
  % Inhibition: <30%
β-secretase (BACE) [1]; 3 μM compound
  % Inhibition: <30%

## CCCC(CCCC(=O)N(CC)C1CCCCC1)N1Cc2cc(Oc3ccccc3)ccc2N=C1N (centres unmarked) [Compound 105]
β-secretase (BACE) [1]; 3 μM compound
  % Inhibition: <30%
β-secretase (BACE) [1]; 10 μM compound
  % Inhibition: <30%
β-secretase (BACE) [2]; 0.3 μM test compound
  % Inhibition (FS): <30%
β-secretase (BACE) [2]; 1 μM test compound
  % Inhibition (FS): <30%
β-secretase (BACE) [2]; 3 μM test compound
  % Inhibition (FS): <30%

## NC1=Nc2ccc(Oc3ccccc3)cc2CN1C(CNC(=O)CCC1CCCC1)C1CCCCC1 (centres unmarked) [Compound 366]
β-secretase (BACE) [1]; 0.3 μM compound
  % Inhibition: 64%
β-secretase (BACE) [1]; 1 μM compound
  % Inhibition: 113%
β-secretase (BACE) [1]; 3 μM compound
  % Inhibition: 119%

## NC1=Nc2ccc(Oc3ccccc3)cc2CN1C(CCNC(=O)C1CCCC1)C1CCCCC1 (centres unmarked) [Compound 392]
β-secretase (BACE) [1]; 0.3 μM compound
  % Inhibition: 75%
β-secretase (BACE) [1]; 1 μM compound
  % Inhibition: 116%
β-secretase (BACE) [1]; 3 μM compound
  % Inhibition: 120%

## CN(C(=O)[C@H]1CCCC[C@H]1N1Cc2cc(Oc3ccccc3)ccc2N=C1N)C1CCCCC1 [Compound 81]
β-secretase (BACE) [1]; 3 μM compound
  % Inhibition: <30%
β-secretase (BACE) [1]; 10 μM compound
  % Inhibition: <30%

## CN(C(=O)C1CCC(CN2Cc3cc(Oc4ccccc4)ccc3N=C2N)CC1)C1CCCCC1 (centres unmarked) [Compound 100]
β-secretase (BACE) [1]; 3 μM compound
  % Inhibition: <30%
β-secretase (BACE) [1]; 10 μM compound
  % Inhibition: <30%

## CCN(CC)CCN1Cc2cc(Oc3ccccc3)ccc2N=C1N [Compound 79]
β-secretase (BACE) [1]; 3 μM compound
  % Inhibition: <30%
β-secretase (BACE) [1]; 10 μM compound
  % Inhibition: <30%

## CN(C(=O)[C@@H]1CCCN1C(=O)CN1Cc2cc(Oc3ccccc3)ccc2N=C1N)C1CCCCC1 [Compound 88]
β-secretase (BACE) [1]; 3 μM compound
  % Inhibition: <30%
β-secretase (BACE) [1]; 10 μM compound
  % Inhibition: <30%

## NC1=Nc2ccc(Oc3ccccc3)cc2CN1C(CNC(=O)C1CCCCC1)c1ccccc1 (centres unmarked) [Compound 342]
β-secretase (BACE) [1]; 0.3 μM compound
  % Inhibition: 50%
β-secretase (BACE) [1]; 1 μM compound
  % Inhibition: 93%
β-secretase (BACE) [1]; 3 μM compound
  % Inhibition: 119%

## CN(C(=O)c1cccc(N2Cc3cc(Oc4ccccc4)ccc3N=C2N)c1)C1CCCCC1 [Compound 94]
β-secretase (BACE) [1]; 3 μM compound
  % Inhibition: <30%
β-secretase (BACE) [1]; 10 μM compound
  % Inhibition: <30%

## CN(C(=O)[C@@H]1CCC[C@@H]1N1Cc2cc(Oc3ccccc3)ccc2N=C1N)C1CCCCC1 [Compound 72]
β-secretase (BACE) [1]; 3 μM compound
  % Inhibition: <30%
β-secretase (BACE) [1]; 10 μM compound
  % Inhibition: <30%

## CN(C(=O)c1cc(CN2Cc3cc(Oc4ccccc4)ccc3N=C2N)ccn1)C1CCCCC1 [Compound 89]
β-secretase (BACE) [1]; 3 μM compound
  % Inhibition: 77%
β-secretase (BACE) [1]; 10 μM compound
  % Inhibition: 81%

## CC(C)(C)C(=O)NCC(C1CCCCC1)N1Cc2cc(Oc3ccccc3)ccc2N=C1N (centres unmarked) [Compound 317]
β-secretase (BACE) [1]; 0.3 μM compound
  % Inhibition: <30%
β-secretase (BACE) [1]; 1 μM compound
  % Inhibition: 66%

## NC1=Nc2ccc(Oc3ccccc3)cc2CN1C(CNC(=O)C1(c2ccc(Cl)cc2)CCCC1)C1CCCCC1 (centres unmarked) [Compound 390]
β-secretase (BACE) [1]; 0.3 μM compound
  % Inhibition: <30%
β-secretase (BACE) [1]; 1 μM compound
  % Inhibition: 50%

## CC(C)(C)OC(=O)N1CCC(N2Cc3cc(Oc4ccccc4)ccc3N=C2N)C1 (centres unmarked) [Compound 93]
β-secretase (BACE) [1]; 3 μM compound
  % Inhibition: <30%
β-secretase (BACE) [1]; 10 μM compound
  % Inhibition: <30%

## CCCC(CNC(=O)C1CCCCC1)N1Cc2cc(Oc3ccccc3)ccc2N=C1N (centres unmarked) [Compound 343]
β-secretase (BACE) [1]; 0.3 μM compound
  % Inhibition: 81%
β-secretase (BACE) [1]; 1 μM compound
  % Inhibition: 101%
β-secretase (BACE) [1]; 3 μM compound
  % Inhibition: 118%

## CN(C(=O)c1ccc(CN2Cc3cc(Oc4ccccc4)ccc3N=C2N)cc1)C1CCCCC1 [Compound 97]
β-secretase (BACE) [1]; 3 μM compound
  % Inhibition: <30%
β-secretase (BACE) [1]; 10 μM compound
  % Inhibition: 53%

From patent US8426429B2, “2-amino-quinazoline derivatives useful as inhibitors of β-secretase (BACE)” (Jansssen Pharmaceutica N.V., priority 2004, dated 2013)
